Experimental data taken from the NIST ThermoML archive (doi:10.1016/j.fluid.2015.07.026).

Details: Liquid, Pendant drop shape

[Ar] [argon] + O
interfacial tension [mN/m]
Details	2000 kPa	5000 kPa	10000 kPa	15000 kPa	20000 kPa	25000 kPa	30000 kPa	40000 kPa	50000 kPa
298.01 K	71.6	69.7	67.4	65.3	63.3	61.9	60.7	58.6	57
323.16 K	67.1	65.7	63.2	61.1	59.4	57.9	56.5	54.5	53.3
373.28 K	58.5	57.2	55.5	53.9	52.7	51.6	50.8	49.3	48.2
448.07 K	43.1	42.5	41.3	40.3	39.5	38.8	38.3	37.3	36.6
473.53 K	37.3	36.5	35.6	34.8	34.1	33.7	33.1	32.9	32.8
